Patent US20240294499A1, “TARGETED PROTEIN DEGRADATION USING BIFUNCTIONAL COMPOUNDS THAT BIND UBIQUITIN LIGASE AND TARGET MCL-1 PROTEIN” (Captor Therapeutics S.A., priority 2021, published 2024)

How the values were obtained:
[1] = biological target: T1, [MCL-1]-[compound of formula (I)]-[CRBN/DDB1] complex (Homo sapiens, UniProt Q07820+Q96SW2); test: AlphaLISA dose response ternary complex formation assay; type: binding; settings: read-out: AlphaLISA dose response Average pEC50 by molecule (converted)
T1 sequence (Q07820 whole entry): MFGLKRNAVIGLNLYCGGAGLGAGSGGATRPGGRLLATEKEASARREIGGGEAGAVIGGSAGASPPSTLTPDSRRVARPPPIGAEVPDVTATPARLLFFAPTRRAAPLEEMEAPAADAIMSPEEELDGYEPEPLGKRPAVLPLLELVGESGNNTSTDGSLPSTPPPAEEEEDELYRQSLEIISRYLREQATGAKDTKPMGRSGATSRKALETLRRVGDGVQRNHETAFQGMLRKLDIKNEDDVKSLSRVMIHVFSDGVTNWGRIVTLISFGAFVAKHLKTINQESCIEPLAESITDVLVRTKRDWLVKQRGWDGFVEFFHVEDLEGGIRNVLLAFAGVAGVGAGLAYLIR
T1 sequence (Q96SW2 whole entry): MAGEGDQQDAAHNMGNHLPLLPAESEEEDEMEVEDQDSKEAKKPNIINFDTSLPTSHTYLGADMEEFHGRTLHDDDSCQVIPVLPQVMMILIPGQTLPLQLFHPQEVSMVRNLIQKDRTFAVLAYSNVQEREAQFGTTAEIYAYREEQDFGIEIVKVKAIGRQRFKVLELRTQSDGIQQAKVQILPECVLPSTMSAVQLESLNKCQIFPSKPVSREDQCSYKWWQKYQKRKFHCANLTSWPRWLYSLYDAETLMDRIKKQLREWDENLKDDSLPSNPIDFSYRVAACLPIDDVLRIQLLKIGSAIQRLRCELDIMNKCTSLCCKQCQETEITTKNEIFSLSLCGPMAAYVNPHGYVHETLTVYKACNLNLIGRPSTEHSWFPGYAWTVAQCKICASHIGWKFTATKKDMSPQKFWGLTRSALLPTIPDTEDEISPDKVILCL
T1 sequence (Q16531 whole entry partner): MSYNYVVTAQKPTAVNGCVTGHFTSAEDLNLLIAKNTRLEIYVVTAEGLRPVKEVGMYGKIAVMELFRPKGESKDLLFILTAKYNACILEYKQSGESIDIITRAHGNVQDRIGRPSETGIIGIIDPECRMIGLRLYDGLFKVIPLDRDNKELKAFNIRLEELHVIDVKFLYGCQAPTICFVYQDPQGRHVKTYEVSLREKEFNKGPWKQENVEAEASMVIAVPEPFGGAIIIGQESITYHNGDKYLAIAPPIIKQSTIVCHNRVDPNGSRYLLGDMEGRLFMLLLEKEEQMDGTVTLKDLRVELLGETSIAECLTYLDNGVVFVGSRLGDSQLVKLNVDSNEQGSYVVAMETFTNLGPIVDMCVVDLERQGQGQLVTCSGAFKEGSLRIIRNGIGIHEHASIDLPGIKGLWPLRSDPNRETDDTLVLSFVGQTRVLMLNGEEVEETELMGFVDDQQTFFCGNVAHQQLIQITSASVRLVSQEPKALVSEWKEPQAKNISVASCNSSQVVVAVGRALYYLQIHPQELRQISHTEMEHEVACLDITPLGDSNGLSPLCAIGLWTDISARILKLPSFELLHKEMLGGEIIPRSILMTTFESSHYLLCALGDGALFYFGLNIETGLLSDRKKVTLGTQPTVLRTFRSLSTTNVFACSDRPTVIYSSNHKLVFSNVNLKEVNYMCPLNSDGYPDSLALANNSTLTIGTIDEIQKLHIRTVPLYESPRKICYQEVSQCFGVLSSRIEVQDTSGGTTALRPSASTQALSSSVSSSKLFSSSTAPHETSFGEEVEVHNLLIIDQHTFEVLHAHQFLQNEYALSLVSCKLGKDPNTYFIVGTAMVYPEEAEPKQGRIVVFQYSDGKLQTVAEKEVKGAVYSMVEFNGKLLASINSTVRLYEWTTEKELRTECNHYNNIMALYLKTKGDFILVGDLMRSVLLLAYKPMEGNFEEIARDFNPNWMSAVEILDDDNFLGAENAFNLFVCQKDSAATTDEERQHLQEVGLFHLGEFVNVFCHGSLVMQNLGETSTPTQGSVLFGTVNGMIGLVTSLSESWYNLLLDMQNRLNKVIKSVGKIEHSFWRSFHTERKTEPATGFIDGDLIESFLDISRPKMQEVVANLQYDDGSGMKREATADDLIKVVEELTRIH
Outline: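 EC50 comes from dose–response of AlphaLISA luminescence (excitation 680, emission 615 nm), normalised between DMSO background and an internal positive control, with concentrations past the hook point dropped. Ternary complex formed by mixing bead-bound biotin-hMCL-1 and His-CRBN/DDB1 (protein solutions 40 and 200 nM) with compound in 2% DMSO, 30 min, 25 °C.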

MV-4-11 cells = test: Cell viability assay (CellTiter-Glo), MV-4-11; type: cell-based; settings: Homo sapiens, MV4-11, 24 hours incubation, 1% FBS, read-out: Average pIC50 by molecule MV-4-11 (converted)
Outline: (§1)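 OPM-2, MV-4-11 and ARH-77 cells were grown in medium with 1% FBS and treated with compound in 1/3 dilutions from 30 uM (9–12 points, 0.5% DMSO). Viability was read by CellTiter-Glo luminescence after 24 hours and normalized to DMSO control.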

DMS 114 cells = test: Cell viability assay (CellTiter-Glo), DMS 114; type: cell-based; settings: Homo sapiens, DMS-114, 72 h, 72 hours incubation, 10% FBS, read-out: Average pIC50 by molecule DMS 114 (converted)
From the text: The effect of various compounds of the invention on the viability of DMS 114 cell line was investigated, using the CTG protocol described below.
DMS 114 cell line is derived from small-cell lung cancer, which is described in the literature as MCL-1 dependent lines [Yasuda Y et al. Cell Death & Disease 2020; 11: 177].
DMS 114 cells were detached with trypsin and then resuspended in growth medium containing 10% FBS and counted. Cell suspension was then adjusted to 5×10^4 cells/ml using growth medium containing 10% FBS. Afterwards, […] were seeded on 384-well plates (50 μl). Plates were then placed in the incubator overnight until treated. Next day, compounds were added using ECHO 555 liquid handler. Compound concentrations used in this assay: 1/3 dilutions starting at 30 uM (9 to 12 points).
After 72 hours of incubation, cell viability was evaluated using CellTiter-Glo Luminescent Cell Viability Assay (Promega, cat #G7572). Luminescence signal was measured using a CLARIOstar Plus Multi-Mode Microplate Reader (574-590 nm).

ARH-77 cells = test: Cell viability assay (CellTiter-Glo), ARH-77; type: cell-based; settings: Homo sapiens, ARH-77, 24 hours incubation, 1% FBS, read-out: Average pIC50 by molecule ARH-77 (converted)
Outline: as §1

OPM-2 cells = test: Cell viability assay (CellTiter-Glo), OPM-2; type: cell-based; settings: Homo sapiens, 24 hours incubation, 1% FBS, read-out: Average pIC50 by molecule OPM-2 (converted)
From the text: The effect of various compounds of the invention on the viability of OPM-2, MV-4-11 and ARH-77 cell lines was investigated, using the CTG protocol described below.
OPM-2 and MV-4-11 cell lines are derived from multiple myeloma and acute myeloid leukaemia, respectively. Both cell lines are described in the literature as MCL-1 dependent lines, as opposed to lymphoblast-like ARH-77 cell line, which is described as independent of MCL-1 (Tron A E et al. Nat Commun. 2018; 9: 5341; Caenepeel S et al. Cancer Discov. 2018 December; 8(12):1582-1597).
Cells (OPM-2, MV-4-11 or ARH-77) were seeded on […] in a growth medium with FBS reduced to 1%. Next, compound stocks were pre-diluted in DMSO and added directly to the cells growth medium (final DMSO concentration: 0.5%). Compound concentrations used in this assay: 1/3 dilutions starting at 30 uM (9 to 12 points).
After 24 hours of incubation, cell viability was evaluated using CellTiter-Glo Luminescent Cell Viability Assay (Promega, cat #G7572). Luminescence signal was measured using a CLARIOstar Plus Multi-Mode Microplate Reader (574-590 nm).
Results were normalized to DMSO control.

[2] = biological target: T1, [MCL-1]-[compound of formula (I)]-[CRBN/DDB1] complex; test: HTRF ternary complex assay; type: binding; settings: ternary complex formation; read-out: HTRF ternary complex Average pEC50 by molecule (converted)
Outline: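 hMcl-1 and CRBN (mix at 48 nM and 105.6 nM) with Streptavidin-Eu cryptate and anti-6×His-d2 in PPI Europium buffer with 2 mM DTT; compounds in dose-response, 0.5% DMSO. Incubated 180 min at 25° C, TR-FRET 665/620 read. Bell-shaped curve fitted by Gaussian; EC50 reported.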

EC50 [1] [nM] | IC50 (MV-4-11 cells) [nM] | EC50 [2] [nM] | Structure (SMILES) | IC50 (DMS 114 cells) [nM] | IC50 (ARH-77 cells) [nM] | IC50 (OPM-2 cells) [nM]
< 100 | ≤ 31.6 |  | Cc1nn(C)c(C)c1-c1c(Cl)ccc2c(CCCOc3cccc4cc(F)ccc34)c(C(=O)O)n(CCN3CCN(C(=O)[C@H](C)Oc4cccc5c4C(=O)N([C@H]4CCC(=O)NC4=O)C5=O)CC3)c12 (single isomer, unassigned) [Compound 319] | ≤ 3160 | > 10000 | 
< 100 | ≤ 316 |  | Cc1nn(C)c(C)c1-c1c(Cl)ccc2c(CCCOc3cccc4ccccc34)c(C(=O)O)n(CCN3CCN(C(=O)CNc4cccc5c4C(=O)N(C4CCC(=O)NC4=O)C5=O)CC3)c12 (stereo not drawn) [Compound 207, 6-chloro-1-{2-[4-(2-{[2-(2,6-dioxopiperidin-3-yl)-1,3-dioxo-2,3-dihydro-1H-isoindol-4-yl]amino}acetyl)piperazin-1-yl]ethyl}-3-[3-(naphthalen-1-yloxy)propyl]-7-(1,3,5-trimethyl-1H-pyrazol-4-yl)-1H-indole-2-carboxylic acid] |  | > 10000 | ≤ 1000
< 100 | ≤ 100 |  | Cc1nn(C)c(C)c1-c1c(Cl)ccc2c(CCCOc3cccc4ccccc34)c(C(=O)O)n(CCN3CCN(C(=O)COc4cccc5c4C(=O)N(C4CCC(=O)NC4=O)C5=O)CC34CC4)c12 (stereo not drawn) [Compound 210, 6-chloro-1-(2-(7-(2-((2-(2,6-dioxopiperidin-3-yl)-1,3-dioxoisoindolin-4-yl)oxy)acetyl)-4,7-diazaspiro[2.5]octan-4-yl)ethyl)-3-(3-(naphthalen-1-yloxy)propyl)-7-(1,3,5-trimethyl-1H-pyrazol-4-yl)-1H-indole-2-carboxylic acid] |  | > 10000 | ≤ 1000
< 100 | ≤ 100 | < 10 | Cc1nn(C)c(C)c1-c1c(Cl)ccc2c(CCCOc3cccc4cc(F)ccc34)c(C(=O)O)n(CCN3CCN(C(=O)Cn4c(C)nc5c(C(=O)NC6CCC(=O)NC6=O)ccc(Br)c54)CC3)c12 (stereo not drawn) [Compound 269, 1-(2-(4-(2-(7-Bromo-4-((2,6-dioxopiperidin-3-yl)carbamoyl)-2-methyl-1H-benzo[d]imidazol-1-yl)acetyl)piperazin-1-yl)ethyl)-6-chloro-3-(3-((6-fluoronaphthalen-1-yl)oxy)propyl)-7-(1,3,5-trimethyl-1H-pyrazol-4-yl)-1H-indole-2-carboxylic acid] | ≤ 3160 | > 10000 | 
< 100 | ≤ 100 |  | Cc1nn(C)c(C)c1-c1c(Cl)ccc2c(CCCOc3cccc4cc(F)ccc34)c(C(=O)O)n(CCN3CCN(C(=O)Cn4c(C)nc5c(C(=O)NC6CCC(=O)NC6=O)cc(N)cc54)CC3)c12 (stereo not drawn) [Compound 275, 1-{2-[4-(2-{6-Amino-4-[(2,6-dioxopiperidin-3-yl)carbamoyl]-2-methyl-1H-1,3-benzodiazol-1-yl}acetyl)piperazin-1-yl]ethyl}-6-chloro-3-{3-[(6-fluoronaphthalen-1-yl)oxy]propyl}-7-(1,3,5-trimethyl-1H-pyrazol-4-yl)-1H-indole-2-carboxylic acid] | ≤ 3160 | > 10000 | 
< 100 | ≤ 100 |  | COc1cc(C(=O)NC2CCC(=O)NC2=O)c2nc(C)n(CC(=O)N3CCN(CCn4c(C(=O)O)c(CCCOc5cccc6cc(F)ccc56)c5ccc(Cl)c(-c6c(C)nn(C)c6C)c54)CC3)c2c1 (stereo not drawn) [Compound 277, 6-Chloro-1-{2-[4-(2-{4-[(2,6-dioxopiperidin-3-yl)carbamoyl]-6-methoxy-2-methyl-1H-1,3-benzodiazol-1-yl}acetyl)piperazin-1-yl]ethyl}-3-{3-[(6-fluoronaphthalen-1-yl)oxy]propyl}-7-(1,3,5-trimethyl-1H-pyrazol-4-yl)-1H-indole-2-carboxylic acid] | ≤ 3160 | > 10000 | 
< 100 | ≤ 100 |  | Cc1nn(C)c(C)c1-c1c(Cl)ccc2c(CCCOc3cccc4cc(F)ccc34)c(C(=O)O)n(CCN3CCN(C(=O)Cn4c(C)nc5c(C(=O)NC6CCC(=O)NC6=O)cc(F)cc54)CC3)c12 (stereo not drawn) [Compound 278, 6-Chloro-1-{2-[4-(2-{4-[(2,6-dioxopiperidin-3-yl)carbamoyl]-6-fluoro-2-methyl-1H-1,3-benzodiazol-1-yl}acetyl)piperazin-1-yl]ethyl}-3-{3-[(6-fluoronaphthalen-1-yl)oxy]propyl}-7-(1,3,5-trimethyl-1H-pyrazol-4-yl)-1H-indole-2-carboxylic acid] | ≤ 3160 | > 10000 | 
< 10 | ≤ 100 |  | Cc1nn(C)c(C)c1-c1c(Cl)ccc2c(CCCOc3cccc4cc(F)ccc34)c(C(=O)O)n(CC[N+]3([O-])CCN(C(=O)COc4cccc5c4CN(C4CCC(=O)NC4=O)C5=O)CC3)c12 (stereo not drawn) [Compound 298, 1-(2-(2-Carboxy-6-chloro-3-(3-((6-fluoronaphthalen-1-yl)oxy)propyl)-7-(1,3,5-trimethyl-1H-pyrazol-4-yl)-1H-indol-1-yl)ethyl)-4-(2-((2-(2,6-dioxopiperidin-3-yl)-1-oxoisoindolin-4-yl)oxy)acetyl)piperazine 1-oxide] | ≤ 1000 | > 10000 | 
 | ≤ 31.6 | < 10 | Cc1nn(C)c(C)c1-c1c(Cl)ccc2c(CCCOc3cccc4cc(F)ccc34)c(C(=O)O)n(CCN3CCN(C4CCN(c5cc6c(cc5F)C(=O)N(C5CCC(=O)NC5=O)C6=O)CC4)CC3)c12 (stereo not drawn) [Compound 338, 6-Chloro-1-[2-(4-{1-[2-(2,6-dioxopiperidin-3-yl)-6-fluoro-1,3-dioxo-2,3-dihydro-1H-isoindol-5-yl]piperidin-4-yl}piperazin-1-yl)ethyl]-3-{3-[(6-fluoronaphthalen-1-yl)oxy]propyl}-7-(1,3,5-trimethyl-1H-pyrazol-4-yl)-1H-indole-2-carboxylic acid] | ≤ 10000 | > 10000 | 
< 100 | ≤ 31.6 |  | Cc1nn(C)c(C)c1-c1c(Cl)ccc2c(CCCOc3cccc4cc(F)ccc34)c(C(=O)O)n(CCN3CCN(C(=O)COc4c(F)ccc5c4CN(C4CCC(=O)NC4=O)C5=O)CC3)c12 (stereo not drawn) [Compound 342, 6-Chloro-1-(2-(4-(2-((2-(2,6-dioxopiperidin-3-yl)-5-fluoro-1-oxoisoindolin-4-yl)oxy)acetyl)piperazin-1-yl)ethyl)-3-(3-((6-fluoronaphthalen-1-yl)oxy)propyl)-7-(1,3,5-trimethyl-1H-pyrazol-4-yl)-1H-indole-2-carboxylic acid] | ≤ 1000 | > 10000 | 
 | ≤ 31.6 | < 100 | COCc1c(-c2c(Cl)ccc3c(CCCOc4cccc5cc(F)ccc45)c(C(=O)O)n(CCN4CCN(C(=O)COc5cccc6c5CN(C5CCC(=O)NC5=O)C6=O)CC4)c23)c(C)nn1C (stereo not drawn) [Compound 349, 6-Chloro-1-(2-(4-(2-((2-(2,6-dioxopiperidin-3-yl)-1-oxoisoindolin-4-yl)oxy)acetyl)piperazin-1-yl)ethyl)-3-(3-((6-fluoronaphthalen-1-yl)oxy)propyl)-7-(5-(methoxymethyl)-1,3-dimethyl-1H-pyrazol-4-yl)-1H-indole-2-carboxylic acid] | ≤ 1000 | > 10000 | 
